Reference: article PMC5198778 (MedChemComm, 2016)
Blank lines part the entries; values can stand above or below the compound they belong to.

Legend:
[1] = molecular target: T1, CARM1 (Homo sapiens, UniProt Q86X55); test: Mechanism of action; format: biochemical; conditions: IC50 against CARM1 with increasing peptide substrate or SAM concentrations
T1 sequence (Q86X55 1-608): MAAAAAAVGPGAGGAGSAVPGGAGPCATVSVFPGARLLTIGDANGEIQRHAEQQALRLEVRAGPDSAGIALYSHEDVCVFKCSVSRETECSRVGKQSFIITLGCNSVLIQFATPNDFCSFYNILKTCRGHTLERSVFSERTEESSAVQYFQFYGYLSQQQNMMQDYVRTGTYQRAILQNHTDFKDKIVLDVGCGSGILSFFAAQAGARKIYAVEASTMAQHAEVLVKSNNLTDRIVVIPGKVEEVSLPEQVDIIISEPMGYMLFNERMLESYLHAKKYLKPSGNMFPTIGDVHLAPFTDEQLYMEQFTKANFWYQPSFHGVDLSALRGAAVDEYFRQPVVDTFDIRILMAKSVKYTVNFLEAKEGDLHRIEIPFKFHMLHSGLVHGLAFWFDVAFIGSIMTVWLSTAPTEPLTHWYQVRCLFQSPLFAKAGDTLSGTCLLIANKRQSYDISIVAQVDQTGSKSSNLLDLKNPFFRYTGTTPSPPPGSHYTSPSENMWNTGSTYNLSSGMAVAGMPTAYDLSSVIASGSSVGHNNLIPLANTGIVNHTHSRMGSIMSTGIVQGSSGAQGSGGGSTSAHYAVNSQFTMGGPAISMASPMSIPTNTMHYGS

[2] = tested on: all type I PRMTs; conditions: cited from earlier work
[3] = tested on: type II and type III PRMTs as well as other methyltransferases; conditions: cited from earlier work
[4] = molecular target: PRMT8 (Homo sapiens, UniProt Q9NR22); test: PRMT8 biochemical inhibition assay
PRMT8, sequence (Q9NR22 whole entry, species assumed): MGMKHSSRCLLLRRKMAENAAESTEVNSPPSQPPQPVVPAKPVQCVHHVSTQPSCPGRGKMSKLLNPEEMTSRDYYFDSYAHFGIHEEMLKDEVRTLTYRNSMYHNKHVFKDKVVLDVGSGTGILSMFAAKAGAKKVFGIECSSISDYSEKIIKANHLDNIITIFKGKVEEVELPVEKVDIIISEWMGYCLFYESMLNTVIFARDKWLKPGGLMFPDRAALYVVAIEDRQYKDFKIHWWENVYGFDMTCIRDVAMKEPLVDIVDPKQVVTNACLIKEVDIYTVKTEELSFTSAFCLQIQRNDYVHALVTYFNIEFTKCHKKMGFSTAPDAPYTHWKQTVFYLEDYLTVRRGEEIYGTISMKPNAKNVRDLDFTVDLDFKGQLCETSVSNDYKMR

[5] = tested on: other PRMTs; test: Activity against other PRMTs; format: biochemical; conditions: PRMTs other than CARM1, PRMT6 and PRMT8

mechanism of action versus cofactor SAM and peptide substrate [1]: noncompetitive
SMILES: CNCCN1CCC(NCc2cccc(Br)c2)CC1 [Compound 9]

SMILES: CC(C)Oc1ccc(-c2c[nH]cc2CN(C)CCN)cc1 [MS023]
activity against all type I PRMTs [2]: potent
activity against type II and type III PRMTs and other methyltransferases [3]: inactive

IC50 [4]: 1.2 µM
SMILES: CNCCN1CC(OCc2cccc(OC(F)(F)F)c2)C1 [Compound 6]
activity against other PRMTs [5]: inactive
